Laboratory results published in the NIST ThermoML archive (doi:10.1021/je800158z).

How the values were obtained:
[1] = xn = mol fraction of the nth substance listed; conditions: 81.5 kPa, Liquid
[2] = 81.5 kPa, Liquid

O [water] + CC(C)O
Conditions	mass density [kg/m3]
[1], 323.15 K, x2 = 0	988.03

CCCO [propan-1-ol] + O
mass density [kg/m3], [1]
Conditions	293.15 K	303.15 K	313.15 K	323.15 K
x1 = 0.0401	980.98	976.93	972.23	966.91
x1 = 0.1202	947.94	941.35	934.48	927.31
x1 = 0.2	918.86	911.37	903.85	896.05
x1 = 0.2798	895.6	887.91	879.98	871.78
x1 = 0.3599	877.53	869.57	861.38	852.93
x1 = 0.4399	863	854.86	846.49	837.86
x1 = 0.5197	851.12	842.87	834.37	825.64
x1 = 0.5986	840.82	832.48	823.92	815.16
x1 = 0.6792	831.69	823.34	814.76	805.95
x1 = 0.7485	824.84	816.47	807.91	799.13
x1 = 0.8383	816.74	808.45	799.96	791.25
x1 = 0.9052	811.17	802.94	794.55	785.94
x1 = 1	803.59	795.53	787.38	778.92

CC(C)O [propan-2-ol]
[2]
Conditions	mass density [kg/m3]
293.15 K	785.1
303.15 K	776.63
313.15 K	767.84
323.15 K	758.68

O [water] + CCCO
Conditions	mass density [kg/m3]
[1], 323.15 K, x2 = 0	988.03

CCCO [propan-1-ol]
[2]
Conditions	mass density [kg/m3]
293.15 K	803.59
303.15 K	795.53
313.15 K	787.38
323.15 K	778.92

CC(C)O [propan-2-ol] + O
mass density [kg/m3], [1]
Conditions	293.15 K	303.15 K	313.15 K	323.15 K
x1 = 0.0399	979.61	976	971.52	966.2
x1 = 0.1197	948.88	941.64	934.18	926.48
x1 = 0.2017	916.63	908.64	900.42	891.98
x1 = 0.28	891.87	883.56	875.01	866.23
x1 = 0.359	871.15	862.65	853.89	844.85
x1 = 0.4384	854.11	845.46	836.52	827.31
x1 = 0.5204	839.36	830.58	821.54	812.2
x1 = 0.5995	827.56	818.72	809.6	800.16
x1 = 0.6801	817.14	808.26	799.08	789.6
x1 = 0.7552	808.56	799.67	790.48	780.98
x1 = 0.8403	799.95	791.1	781.97	772.47
x1 = 0.9225	792.03	783.34	774.33	764.97
x1 = 1	785.1	776.63	767.84	758.68
